From ChEMBL document CHEMBL3045595, “Synthesis and characterization of new types of 2-(6-methoxy-2-naphthyl)propionamide derivatives as potential antibacterial and antifungal agents” (2013) come the findings set out here.

The structures appear in SMILES notation. Converted amounts (≈) assume the structure as drawn. The source made the active and inactive calls. The calls are words filed in the database; no cut-off is given here.

The MIC is the lowest concentration found to suppress growth.

Common to all, as to type: functional
The test system of experiment [1] is Aspergillus ochraceus. The experiment in a line: Antifungal activity against Aspergillus ochraceus RCMB 02593 at 1 mg/ml after 72 hrs by agar well diffusion method. As to conditions: RCMB 02593, 72 h, read-out: DIZ. On the technique in general: In agar diffusion tests the substance spreads into inoculated agar from a disc or well.
Experiment [2] deals with Escherichia coli. The experiment is described as follows: Antibacterial activity against Escherichia coli RCMB 000103 at 1 mg/ml after 24 hrs by agar well diffusion method. As to conditions: for zone of inhibition at 1000 µg/mL: RCMB 000103, 24 h, read-out: DIZ.
Experiment [3] relates to Bacillus subtilis. The experiment in a line: Antibacterial activity against Bacillus subtilis RCMB 010063 after 24 hrs by twofold serial dilution method. As to conditions: RCMB 010063, 24 h.
Experiment [4] has as its system Escherichia coli. The experiment in a line: Antibacterial activity against Escherichia coli RCMB 000103 after 24 hrs by twofold serial dilution method. As to conditions: RCMB 000103, 24 h.
Experiment [5] concerns Pseudomonas aeruginosa. The experiment is described as follows: Antibacterial activity against Pseudomonas aeruginosa RCMB 010043 after 24 hrs by twofold serial dilution method. As to conditions: RCMB 010043, 24 h.
Experiment [6] concerns Bacillus subtilis. The experiment is described as follows: Antibacterial activity against Bacillus subtilis RCMB 010063 at 1 mg/ml after 24 hrs by agar well diffusion method. As to conditions: RCMB 010063, 24 h, read-out: DIZ.
In experiment [7] the test system is Pseudomonas aeruginosa. The experiment in a line: Antibacterial activity against Pseudomonas aeruginosa RCMB 010043 at 1 mg/ml after 24 hrs by agar well diffusion method. As to conditions: for zone of inhibition at 1000 µg/mL: RCMB 010043, 24 h, read-out: DIZ.
Experiment [8] has as its system Candida albicans. The experiment is described as follows: Antifungal activity against Candida albicans RCMB 05035 at 1 mg/ml after 72 hrs by agar well diffusion method. As to conditions: for zone of inhibition at 1000 µg/mL: RCMB 05035, 72 h, read-out: DIZ.
Experiment [9] relates to Aspergillus ochraceus. The experiment in a line: Antifungal activity against Aspergillus ochraceus RCMB 02593.
For experiment [10], the system named is Candida albicans. The experiment is described as follows: Antifungal activity against Candida albicans RCMB 05035.
In experiment [11] the test system is Staphylococcus aureus. The experiment in a line: Antibacterial activity against Staphylococcus aureus RCMB 010027 at 1 mg/ml after 24 hrs by agar well diffusion method. As to conditions: RCMB 010027, 24 h, read-out: DIZ.
The test system of experiment [12] is Staphylococcus aureus. The experiment in a line: Antibacterial activity against Staphylococcus aureus RCMB 010027 after 24 hrs by twofold serial dilution method. As to conditions: RCMB 010027, 24 h.

For `COc1ccc2cc(C(C)C(=O)NCc3n[nH]c(=S)n3N)ccc2c1` (centres undefined), the zone of inhibition at 1000 µg/mL in the experiment on Aspergillus ochraceus [1] worked out at 19.4 mm; in the experiment with Escherichia coli [2] it was 20.3 mm; with Bacillus subtilis [6], 23.7 mm; with Pseudomonas aeruginosa [7], 15.9 mm; in the experiment on Candida albicans [8] it was 20.6 mm; in the experiment on Staphylococcus aureus [11] it was 21.6 mm. In addition, the MIC stood at 0.97 µg/mL (≈ 2.71 µM) in the experiment on Bacillus subtilis [3]; 7.81 µg/mL (≈ 21.8 µM) with Escherichia coli [4]; 62.5 µg/mL (≈ 175 µM) against Pseudomonas aeruginosa [5]; 15.6 µg/mL (≈ 43.7 µM) in the experiment with Aspergillus ochraceus [9]; 62.5 µg/mL (≈ 175 µM) against Candida albicans [10]; 3.9 µg/mL (≈ 10.9 µM) against Staphylococcus aureus [12].
Turning to `COc1ccc2cc(C(C)C(=O)N/C(=C/c3ccc(Cl)cc3)C(=O)Nc3ccc(C)cc3)ccc2c1` (centres undefined), the zone of inhibition at 1000 µg/mL in the experiment on Aspergillus ochraceus [1] amounted to 14.8 mm; with Escherichia coli [2], 14.3 mm; with Bacillus subtilis [6], 19.6 mm; with Candida albicans [8] it was 13.6 mm; with Staphylococcus aureus [11] it was 19.9 mm. The “diameter of the inhibition zone (DIZ)” value in the experiment on Pseudomonas aeruginosa [7] was “inactive”.
Regarding `COc1ccc2cc(C(C)C(=O)Nc3ccc(S(=O)(=O)NC(C)=O)cc3)ccc2c1` (centres undefined), the zone of inhibition at 1000 µg/mL is 18.6 mm with Aspergillus ochraceus [1]; 21.3 mm with Escherichia coli [2]; 23.4 mm in the experiment with Bacillus subtilis [6]; 14.5 mm in the experiment on Pseudomonas aeruginosa [7]; 17.8 mm with Candida albicans [8]; 23.3 mm with Staphylococcus aureus [11]. In addition, the MIC in the experiment with Bacillus subtilis [3] came out at 0.97 µg/mL (≈ 2.27 µM); with Escherichia coli [4] it was 3.9 µg/mL (≈ 9.14 µM); in the experiment with Pseudomonas aeruginosa [5], 125 µg/mL (≈ 293 µM); in the experiment on Aspergillus ochraceus [9], 15.6 µg/mL (≈ 36.6 µM); in the experiment on Candida albicans [10], 31.2 µg/mL (≈ 73.3 µM); against Staphylococcus aureus [12], 0.97 µg/mL (≈ 2.27 µM).
For `COc1ccc2cc(C(C)C(=O)NCc3n[nH]c(=S)[nH]3)ccc2c1` (centres undefined), the zone of inhibition at 1000 µg/mL was determined as 20.2 mm with Aspergillus ochraceus [1]; 20.9 mm with Escherichia coli [2]; 23.9 mm in the experiment on Bacillus subtilis [6]; 16.8 mm in the experiment with Pseudomonas aeruginosa [7]; 18.8 mm with Candida albicans [8]; 21.9 mm with Staphylococcus aureus [11]. For the same compound, the MIC came to 0.97 µg/mL (≈ 2.83 µM) with Bacillus subtilis [3]; 7.81 µg/mL (≈ 22.8 µM) against Escherichia coli [4]; 31.2 µg/mL (≈ 91.3 µM) against Pseudomonas aeruginosa [5]; 7.81 µg/mL (≈ 22.8 µM) against Aspergillus ochraceus [9]; 31.2 µg/mL (≈ 91.3 µM) with Candida albicans [10]; 3.9 µg/mL (≈ 11.4 µM) in the experiment with Staphylococcus aureus [12].
For `COc1ccc2cc(C(C)C(=O)Nc3ccc(N(C(C)=O)c4ccccc4)cc3)ccc2c1` (centres undefined), the zone of inhibition at 1000 µg/mL in the experiment with Aspergillus ochraceus [1] worked out at 12.4 mm; with Escherichia coli [2] it was 14.6 mm; with Bacillus subtilis [6], 17.1 mm; in the experiment on Candida albicans [8], 9.3 mm; in the experiment with Staphylococcus aureus [11] it was 16.2 mm. In addition, in the experiment on Pseudomonas aeruginosa [7], the “diameter of the inhibition zone (DIZ)” value is “inactive”.
As for `COc1ccc2cc(C(C)C(=O)NCC(=O)O)ccc2c1` (centres undefined), the zone of inhibition at 1000 µg/mL came to 20.9 mm in the experiment with Aspergillus ochraceus [1]; 13.4 mm in the experiment on Escherichia coli [2]; 16.4 mm with Bacillus subtilis [6]; 20.6 mm in the experiment with Candida albicans [8]; 14.2 mm with Staphylococcus aureus [11]. Besides, the “diameter of the inhibition zone (DIZ)” value with Pseudomonas aeruginosa [7] is “inactive”.
On to `COc1ccc2cc(C(C)C3=N/C(=C/c4ccc(Cl)cc4)C(=O)O3)ccc2c1` (centres undefined), for which the zone of inhibition at 1000 µg/mL is 14.5 mm in the experiment with Aspergillus ochraceus [1], 15 mm in the experiment with Bacillus subtilis [6] and 13.9 mm with Staphylococcus aureus [11]. The “diameter of the inhibition zone (DIZ)” value in the experiment on Escherichia coli [2], in the experiment with Pseudomonas aeruginosa [7] and in the experiment with Candida albicans [8] was “inactive” in each case.
`COc1ccc2cc(C(C)C(=O)Nc3ccc(CC(=O)O)cc3)ccc2c1` (centres undefined): the zone of inhibition at 1000 µg/mL was found to be 13.9 mm in the experiment with Aspergillus ochraceus [1]; 16.6 mm with Escherichia coli [2]; 18.4 mm with Bacillus subtilis [6]; 12.2 mm with Candida albicans [8]; 17.3 mm with Staphylococcus aureus [11]. The “diameter of the inhibition zone (DIZ)” value in the experiment on Pseudomonas aeruginosa [7] is “inactive”.
As to `COc1ccc2cc(C(C)C(=O)NNC(=O)C(C)c3ccc4cc(OC)ccc4c3)ccc2c1` (centres undefined), the zone of inhibition at 1000 µg/mL in the experiment with Aspergillus ochraceus [1] is 16 mm; in the experiment on Escherichia coli [2], 17.1 mm; with Bacillus subtilis [6] it was 19.4 mm; in the experiment on Candida albicans [8], 13.5 mm; with Staphylococcus aureus [11] it was 17.9 mm. Also, the “diameter of the inhibition zone (DIZ)” value with Pseudomonas aeruginosa [7] is “inactive”.
`COc1ccc2cc(C(C)C(=O)Nc3ccc(C)cc3)ccc2c1` (centres undefined): the zone of inhibition at 1000 µg/mL in the experiment on Aspergillus ochraceus [1] is 14.7 mm; in the experiment with Escherichia coli [2], 15.6 mm; in the experiment on Bacillus subtilis [6] it was 17.2 mm; with Candida albicans [8] it was 12.8 mm; in the experiment on Staphylococcus aureus [11], 16.1 mm. Also, in the experiment with Pseudomonas aeruginosa [7], the “diameter of the inhibition zone (DIZ)” value was “inactive”.
As to `COc1ccc2cc(C(C)C3=N/C(=C/c4ccc(F)cc4)C(=O)O3)ccc2c1` (centres undefined), the zone of inhibition at 1000 µg/mL with Aspergillus ochraceus [1] was 18.3 mm; with Escherichia coli [2], 19.3 mm; in the experiment with Bacillus subtilis [6] it was 20.6 mm; in the experiment with Pseudomonas aeruginosa [7] it was 15.3 mm; with Candida albicans [8] it was 19.9 mm; in the experiment with Staphylococcus aureus [11], 20.3 mm. Moreover, the MIC with Bacillus subtilis [3] turned out to be 3.9 µg/mL (≈ 10.4 µM); in the experiment on Escherichia coli [4] it was 15.6 µg/mL (≈ 41.6 µM); in the experiment with Pseudomonas aeruginosa [5], 62.5 µg/mL (≈ 166 µM); with Aspergillus ochraceus [9], 15.6 µg/mL (≈ 41.6 µM); against Candida albicans [10] it was 125 µg/mL (≈ 333 µM); against Staphylococcus aureus [12], 7.81 µg/mL (≈ 20.8 µM).
Turning to `COc1ccc2cc(C(C)C(=O)NC(C)C(=O)O)ccc2c1` (centres undefined), the zone of inhibition at 1000 µg/mL in the experiment on Aspergillus ochraceus [1] was 12.7 mm; with Escherichia coli [2], 14.3 mm; in the experiment on Bacillus subtilis [6] it was 15.8 mm; in the experiment on Candida albicans [8] it was 10.6 mm; with Staphylococcus aureus [11], 15.1 mm. Besides, in the experiment with Pseudomonas aeruginosa [7], the “diameter of the inhibition zone (DIZ)” value is “inactive”.
`COc1ccc2cc(C(C)C(=O)Nc3ccc(S(=O)(=O)Nc4ncccn4)cc3)ccc2c1` (centres undefined): the zone of inhibition at 1000 µg/mL in the experiment on Aspergillus ochraceus [1] came to 11.7 mm; in the experiment on Escherichia coli [2], 21.6 mm; with Bacillus subtilis [6], 28.7 mm; with Pseudomonas aeruginosa [7], 16.8 mm; with Staphylococcus aureus [11], 25.3 mm. In addition, the MIC in the experiment on Bacillus subtilis [3] worked out at 7.81 µg/mL (≈ 16.9 µM); against Escherichia coli [4], 3.9 µg/mL (≈ 8.43 µM); against Pseudomonas aeruginosa [5], 3.9 µg/mL (≈ 8.43 µM); in the experiment with Aspergillus ochraceus [9], 3.9 µg/mL (≈ 8.43 µM); in the experiment on Staphylococcus aureus [12], 0.24 µg/mL (≈ 0.519 µM). For the same compound, the “diameter of the inhibition zone (DIZ)” value in the experiment with Candida albicans [8] was “inactive”. For the same compound, the MIC entry in the experiment on Candida albicans [10] was “inactive”.
As to `O=C(O)c1cn(C2CC2)c2cc(N3CCNCC3)c(F)cc2c1=O` [CIPROFLOXACIN], the MIC in the experiment with Bacillus subtilis [3] amounted to 0.007 µg/mL (≈ 0.0211 µM); against Escherichia coli [4], 1.95 µg/mL (≈ 5.89 µM); against Pseudomonas aeruginosa [5], 31.2 µg/mL (≈ 94.3 µM); against Staphylococcus aureus [12] it was 0.06 µg/mL (≈ 0.181 µM).
In the case of `COc1ccc2cc(C(C)C(=O)NCCNC(=O)C(C)c3ccc4cc(OC)ccc4c3)ccc2c1` (centres undefined), the zone of inhibition at 1000 µg/mL in the experiment on Aspergillus ochraceus [1] turned out to be 12.6 mm; in the experiment on Bacillus subtilis [6], 14.5 mm; in the experiment with Staphylococcus aureus [11], 13.1 mm. In addition, the “diameter of the inhibition zone (DIZ)” value in the experiment on Escherichia coli [2], in the experiment on Pseudomonas aeruginosa [7] and with Candida albicans [8] was “inactive” in each case.
In the case of `COc1ccc2cc(C(C)C(=O)Nc3ccc(Nc4ccccc4)cc3)ccc2c1` (centres undefined), the zone of inhibition at 1000 µg/mL in the experiment with Aspergillus ochraceus [1] stood at 17.6 mm; in the experiment on Bacillus subtilis [6] it was 15.4 mm; with Staphylococcus aureus [11], 13.9 mm. Moreover, the “diameter of the inhibition zone (DIZ)” value in the experiment with Escherichia coli [2], with Pseudomonas aeruginosa [7] and in the experiment on Candida albicans [8] was “inactive” throughout.
